In US9403806B1, “Cognition enhancing compounds and compositions, methods of making, and methods of treating” (NeuroSolis, Inc., priority 2010, dated 2016):

Assay: Blood and brain concentrations (rats), oral gavage
Assay type: in vivo, Long-Evans Hooded rats
Settings: rat, 10 mg/kg po, 1 hr, relative to MCD-386 = 1.00
Protocol: Long-Evans Hooded rats (Charles River: male, 250-350 g) were dosed with solutions of test compounds in PBS by oral gavage. At the desired time after dosing, the animals were anesthetized with isoflurane, and then euthanized by cervical dislocation. Blood was obtained by cardiac puncture, transferred to a 1.5 mL microcentrifuge tube containing 15U Heparin, and the plasma recovered after centrifugation. Brains were dissected, weighed, immediately chilled to 4° C., and homogenized using a PowerGen 125 homogenizer in five volumes of ice-cold 2% formic acid. Proteins were precipitated from plasma and brain homogenate with two and five volumes respectively of ice-cold 2% formic acid and clarified by centrifugation. The supernatant was ultra-filtered by centrifugation through a 3K MWCO spin column (Pall Life Sciences), following the manufacturer's instructions. The concentration of compound in the ultra-filtrate was subjected to reverse-phase liquid chromatography using a 150×2.1 mm Agilent C8 reverse-phase column on a Shimadzu Prominence LC, eluting the compounds with a gradient of 2% to 50% of acetonitrile+0.1% formic acid for compound MI-50,382, or an isocratic flow of 2% acetonitrile+0.1% formic acid for the rest of the compounds listed. The concentration of the compound in the column effluent was measured using an Applied Biosystems API-3200 triple quadrupole mass spectrometer equipped with an electrospray sample injection system. The counts of the characteristic parent and product ions of each test compound were converted to concentration units by comparison with a standard calibration curve.

CCc1noc(C2CN=CNC2)n1 (stereo not shown) [MCD-386, 3-ethyl-5-(1,4,5,6-tetrahydropyrimidin-5-yl)-1,2,4-oxadiazole]
Brain Cmax (10 mg/kg po) 1 hr MCD-386 = 1.00: 1.00
